Assay results reported in patent US9913817B2, “Methods for preventing or reducing colon carcinogenesis” (Nogra Pharma Limited, priority 2008, dated 2018).

What was measured:
Assay type in all cases: cell-based
HCT116 A2.1 cells [1] = assay: EGFP-based mutation rate / replication fidelity assay (Example 3)
Description: A EGFP-based assay to determine the changes in mutation rate upon incubation with various concentrations of the compounds was used to test whether compounds improve the replication fidelity. Briefly, 1×10^3 EGFP negative HCT116 A2.1 cells were sorted into 24-well plates on a FACS Aria. 24 hours later cells were treated with the compounds for a period of 7 days and the mutant fraction was measured by flow cytometry.

[2] = test system: superoxide (O2−) released by activated neutrophils (PMN); assay: Superoxide scavenging, O2− assay with PMA-activated neutrophils, 90 min time course (Example 2); details: at the investigated concentrations; 100 nM PMA; measured every 15 min for 90 min; FIG. 2A/2B
Description: Compounds 14 and 34 were tested for their potential to scavenge superoxide (O2^−) released by activated neutrophils (PMN) using a standardized O2^− assay, similar to Example 1. Activated neutrophils (PMN) were used as O2^− donors. Briefly, 1×10^6 freshly isolated neutrophils were activated with 100 nM phorbol-myristate-acetate (PMA). The O2^− release was measured every 15 min for a 90 min period by lucigenin amplified chemiluminescence on a luminometer. Either non-activated PMNs or activated PMNs incubated with superoxide dismutase (2000 U/ml, SOD) was used as a control. Experiments were carried out in triplicates

HCT116 A2.1 cells [3] = assay: EGFP-based mutation rate assay at a (CA)13 repeat (Example 4); details: FIG. 4
Description: A EGFP-based assay similar to Example 3 was used to determine the changes in mutation rate upon incubation with various concentrations of disclosed compounds and to test whether the compounds improve the replication fidelity. A EGFP based assay was used to determine the changes in mutation rate at a (CA)13 repeat upon incubation with various concentrations of the compounds. Briefly, 1×10^3 EGFP negative HCT116 A2.1 cells were sorted into 24-well plates on a FACS Aria. 24 hours later cells were treated with the compounds for a period of 7 days. The total cell number (c) and the EGFP-positive fraction (mutant fraction (MF)) were analyzed by flow cytometry. The mutation rate (m/(CA)13/generation (gen) was estimated by m=MF/(gen+1) and gen=log 2(c/1000×cloning efficiency). The transient mutant (M1) and definitive mutant (M2) cells were distinguished.

HCT116 cells = assay: Cell cycle analysis by BrdU staining, HCT116; details: 10 mM-40 mM; 72 hour treatment
Description: BrdU staining was used to analyze cell cycle changes in HCT116 and HT29 cells upon 72 hour treatment with compound 39. Data represent the mean values of 3 independent experiments (* indicates a p<0.05 compared to control)

CC1(C)OC(=O)c2cc(N)ccc2O1 [compound 28]
changes in mutation rate (in words) (HCT116 A2.1 cells [1]; concentrations up to 1 mM, FIG. 3B): does not appear to cause significant changes

COc1ccc(N)cc1C(=O)NO [compound 14]
superoxide scavenging properties (in words) [2]: significant scavenging properties

CCOC(Cc1ccc(N)cc1)C(=O)O (racemic) [compound 39, (±)-2-ethoxy-3-(4′-aminophenyl) propionic acid]
cell growth (in words) (HCT116 A2.1 cells [1]; 20 mM, 7 days): reduced cell growth | effect on M1 (in words) (HCT116 A2.1 cells [1]; 20 mM, FIG. 3C, comparable to the effect of aspirin): increase of M1 | effect on mutant fraction M1 or M2 (in words) (HCT116 A2.1 cells [1]; 7 days, FIG. 3C): did not reduce the mutant fraction M1 or M2 | number of M1 (transient mutant) cells (in words) (HCT116 A2.1 cells [3]; 10 mM up to 40 mM, p<0.05): significantly lowered the number of M1 cells | permanent mutant M2 population (in words) (HCT116 A2.1 cells [3]; 40 mM): significant reduction | cell cycle distribution (in words) (HCT116 cells): did not induce a significant change
